Results from patent publication US3976763A, “Chlorpromazine assay” (Hoffmann-La Roche Inc., priority 1975, dated 1976).

Columns and labels:
[1] = tested on: antibody in the antiserum of rabbit immunized by the CPZ-BSA immunogen; experiment: Radioimmunoassay specificity: inhibition of 3H-CPZ binding to antibody; settings: for binding by the antibody (in words): competition with labeled CPZ; for concentration required to produce a 50% inhibition of 3H-chlorpromazine-antibody binding, relative to chlorpromazine: multiple of the CPZ concentration
Description: The antiserum of EXAMPLE 2 as used for the radioimmunoassay was diluted with normal rabbit serum which was diluted with phosphate-buffered saline, pH 7.4, at 1:10 dilution. To determine the antibody titre of antiserum, 0.1 ml. of various dilutions of the antiserum was incubated in an assay tube (10 × 75 mm) with 320 pg of ^3 H-CPZ approximately 7,000 dpm, at 4°C. overnight. The volume was adjusted to 0.5 ml. with phosphate-buffered salie, pH 7.4 which is the optimal pH for the assay. The antibody bound CPZ was separated from free CPZ by the addition of saturated ammonium sulfate which was adjusted to pH 7.4 with ammonium hydroxide as described by Farr, J. Infect. Dis. 103, 239 (1958). After two washings with 50% saturated ammonium sulfate, the precipitate was dissolved in 0.5 ml. of water. The content of the tube was transferred to a counting vial and the tube was then washed four times with 3 ml. of Riaflour. The 12 ml. washings were all collected in the vial. The radioactivity was then counted with a Beckman liquid scintillation counter. Thedilution of the antiserum chosen for further studies were 1:7,000.
Appropriate volume of phosphate-buffered saline, pH 7.4 was added to all the tubes containing 0.1 ml. of the antiserum to make a final incubation volume of 0.5 ml. To the tubes were added various quantities ranging from 100 ng. to 10 pg. (10 1) of CPZ, its derivatives, serotonin and dopamine. After a 15 minute preincubation, 10 l. of ^3 H-CPZ was added. The tubes were then incubated overnight at 4°C. followed by precipitation with ammonium sulfate.
Background and non-specific protein binding of ^3 H-CPZ were determined by excluding the antiserum from the incubation mixture. The counts representing the non-specific binding were then subtracted from all samples.
The specificity of the antibody in the antiserum of rabbit immunized by the CPZ-BSA immunogen was determined by incubating the antiserum with a number of CPz derivatives or the biologenic amines in the presence of labeled CPZ. […] CPZ substituted at C6, C7, or C8 with hydroxy group was not bound by the antibody to the same extent as CPZ. In order to obtain a 50% inhibition of ^3 H-CPZ-antibody complex formation, these hydroxylated derivatives of CPZ required concentrations which were 5-10 times that of CPZ. […] The 7hydroxy derivatives of Nor1 -CPZ or Nor2 CPZ likewise were poorly bound by the antibody. Another metabolic product which can be formed from CPZ is CPZ-N-oxide. […] Promazine, the dechlorinated derivative required about 8 times the concentration of CPZ to produce a 50% displacement of the labeled CPZ from the antibody.

[2] = Disposition of CPZ in rats: plasma level by radioimmunoassay; type: in vivo, Male Sprague-Dawley rats; settings: iv, rat, 10 mg/kg CPZ hydrochloride intravenously, after initial rapid decline
Description: To determine the plasma concentration of CPZ, aliquots of plasma from animals which received CPZ were diluted with normal rat plasma. To the assay tubes containing antiserum, phosphate-buffered saline, pH 7.4, ^3 H-CPZ and 10 l of unknown samples were added, and incubated at 4°C. overnight. Free CPZ was separated from the antibody bound CPZ by ammonium sulfate precipitation.
Male Sprague-Dawley rats weighing 210-240 g. were injected intravenously with 10 mg/kg of CPZ hydrochloride. In one group of 6 rats, 0.1 ml. of blood samples were taken from the tail into a heparinized capillary tube at varying time intervals following the injection. The plasma was separated by centrifugation and frozen until assayed. Other 48 rats were killed by decapitation at the same intervals as above, and the brain was removed, frozen on dry ice and then kept in a deep freezer at -80°C. until assayed.
The radioimmunoassay procedure of Example 3 was applied to the determination of CPZ and some minor metabolites in rat plasma and brain following intravenous administration of CPZ hydrochloride.

[3] = Disposition of CPZ in rats: brain level by radioimmunoassay; type: in vivo, Male Sprague-Dawley rats; settings: rat
Description: The extraction of CPZ from the brain homogenate was necessary as the compound bound to the tissue. The brain was homogenized with 4 volumes of 0.05 N HCl. To a 0.1 ml. aliquot of the brain homogenate, 0.05 ml. of 0.5 N NaOH and 1.5 ml. of petroleum ether containing 10% isopropyl alcohol were added. The tube was vortexed twice for 20 seconds and then centrifuged at 3000 r.p.m. at 8°C. for 10 minutes. The tube was dipped in a dry ice-acetone bath and the aqueous layer was frozen. The upper organic layer was then transferred to another tube and evaporated to dryness under vacuum. The residue was dissolved in an appropriate volume of 25% isopropyl alcohol. To the assay tube containing antiserum, phosphate-buffered saline, pH 7.4 and ^3 H-CPZ, 10 μl of unknown sample was added.

Structure (SMILES): CN(C)CCCN1c2ccccc2[S+]([O-])c2ccc(Cl)cc21 (stereo not drawn) [chlorpromazine sulfoxide]
- binding by the antibody (in words) [1]: not bound significantly
- binding by the antibody (in words) ([1]; listed as CPZ-sulfoxide): not recognized by the antibody unless the concentrations were high

Structure (SMILES): CNCCCN1c2ccccc2Sc2ccc(Cl)cc21 [nor1 -chlorpromazine]
- binding by the antibody (in words) [1]: not bound significantly
- binding by the antibody (in words) ([1]; listed as Nor1 -CPZ): bound by the antibody to a much lesser extent

Structure (SMILES): CN(C)CCCN1c2ccc(O)cc2Sc2ccc(Cl)cc21 [7-hydroxychlorpromazine]
- concentration required to produce a 50% inhibition of 3H-chlorpromazine-antibody binding, relative to chlorpromazine [1]: 5-10 times

Structure (SMILES): C[N+](C)([O-])CCCN1c2ccccc2Sc2ccc(Cl)cc21 [CPZ-N-oxide]
- binding by the antibody (in words) [1]: not bound to the antibody to any appreciable extent

Structure (SMILES): CN(C)CCCN1c2ccccc2Sc2ccccc21 [promazine]
- concentration required to produce a 50% inhibition of 3H-chlorpromazine-antibody binding, relative to chlorpromazine [1]: 5-10 times
- concentration required to produce a 50% inhibition of 3H-chlorpromazine-antibody binding, relative to chlorpromazine ([1]; listed as Promazine): about 8 times

Structure (SMILES): NCCCN1c2ccccc2Sc2ccc(Cl)cc21 [nor2 -chlorpromazine]
- binding by the antibody (in words) [1]: not bound significantly
- binding by the antibody (in words) ([1]; listed as Nor2 -CPZ): failed to recognize the compound unless the concentrations were extremely high

Structure (SMILES): CN(C)CCCN1c2ccccc2Sc2ccc(Cl)cc21 [CPZ, Chlorpromazine]
- concentration producing a 50% inhibition of binding of 3H-CPZ to the antibody ([1]; 320 pg 3H-CPZ, antiserum 1:7,000, 0.5 ml, pH 7.4, 4°C overnight): 118 pg
- half-life [2]: ~4 h
- time to peak brain level of CPZ and metabolites ([3]; 10 mg/kg CPZ hydrochloride intravenously): Five
- persistence of peak brain level ([3]; in vivo, iv, 10 mg/kg): 30 min

Structure (SMILES): CN(C)CCCN1c2cc(O)ccc2Sc2ccc(Cl)cc21 [8-hydroxychlorpromazine]
- concentration required to produce a 50% inhibition of 3H-chlorpromazine-antibody binding, relative to chlorpromazine [1]: 5-10 times
